Entries after “also recorded” stand apart in the source; their conditions may differ. Values belong to the compound of their own block, whether it stands above or below them.
What was measured:
[1] = tested on: PLC/PRF/5; assay: MTT growth inhibition, PLC/PRF/5; format: cell-based, human; conditions: Homo sapiens, PLC-PRF-5, 78 h
Description: (§1) Samples of the test compounds were formulated in 100% DMSO to obtain 20 mM stock solutions; stored @ 4° C. The IC50s and IC80s were determined as described below. Huh7, WRL-68, PLC/PRF/5, Hep 3B, and Hep G2 human cancer lines were routinely cultured and maintained in a basal medium containing 2% FBS @ 37° C., 5% CO2. […] Vehicle control contained cells, no sample. Medium control contained cells, no sample, 0.03% DMSO (highest DMSO concentration present in samples). […] On day 3, 10 μL MTT (5 mg/mL) were added to each well. Cells were incubated in the presence of MTT for 4 hours @ 37° C., 5% CO2. […] Cells were then incubated overnight @ 37°, 5% CO2. OD570 measurements were taken using BioTek Synergy HT multiplatform microplate reader. Growth inhibition curves IC50s and IC80s were determined using GraphPad Prism 5 statistical software.

[2] = tested on: Ba/F3 (IL-3 induced); assay: MTT growth inhibition, Ba/F3 + IL-3; format: cell-based; conditions: 96 hrs
[3] = tested on: HT29 (human colon cancer); conditions: mouse, in vivo
[4] = tested on: WRL-68; assay: MTT growth inhibition, WRL-68; format: cell-based, human; conditions: Homo sapiens, WRL68, 78 h
Description: as §1

[5] = tested on: MOLT-4 (Adult lymphoblastic leukemia); assay: growth inhibition, MOLT-4; format: cell-based, Human; conditions: Homo sapiens
[6] = tested on: Hep 3B; assay: MTT growth inhibition, Hep 3B; format: cell-based, human; conditions: Homo sapiens, Hep3B, 78 h
Description: as §1

[7] = tested on: K562 (CML); assay: growth inhibition (BrdU), K562; format: cell-based, Human; conditions: Homo sapiens; K562, BrdU, T=72
Excerpt: Growth Inhibition. […] T1 values≤T0 values were designated as T, cytotoxicity.

[8] = tested on: CCRF-HSB-2 (Adult lymphoblastic leukemia); assay: growth inhibition, CCRF-HSB-2; format: cell-based, Human
[9] = tested on: H226; assay: MTT growth inhibition, Dasatinib-resistant H226; format: cell-based, human; conditions: Homo sapiens, NCI-H226, H226, 8.0×10^3 cells/well, 1.5% FBS, 78 Hr
Description: Cell proliferation/growth inhibition was assessed using MTT colorimetric assay.
On Day 3, 10 μL MTT (5 mg/mL) was added to each well. Cells were then incubated in the presence of MTT for 4 hours at 37° C., appropriate CO2 conditions. After this incubation period, 90 μL 10% SDS(+HCl) was added to each well to lyse cells and solubilize formazan. Cells were then incubated overnight at 37° C., appropriate CO2 conditions.
The OD570 was measured using microplate reader. Growth inhibition curves and EC50/IC50 was determined using GraphPad Prism 4 statistical software.

[10] = tested on: HuH7; assay: MTT growth inhibition, HuH7; format: cell-based, human; conditions: Homo sapiens, Huh-7, 78 h
Description: Samples of the test compounds were formulated in 100% DMSO to obtain 20 mM stock solutions; stored @ 4° C. The IC50s and IC80s were determined as described below. Huh7, WRL-68, PLC/PRF/5, Hep 3B, and Hep G2 human cancer lines were routinely cultured and maintained in a basal medium containing 2% FBS @ 37° C., 5% CO2. […] The assay medium was basal medium/1.5% FBS. Cells were cultured overnight in 96-well plates at 37° C., 5% CO2 prior to KX2-391. MSA and Dasatinib addition. […] 10 μL of 20× dilutions were added to the appropriate wells (n=3) containing 190 μL cancer cell line; 6561 nM to 0.012 nM range of final concentrations. Vehicle control contained cells, no sample. Medium control contained cells, no sample, 0.03% DMSO (highest DMSO concentration present in samples). […] On day 3, 10 μL MTT (5 mg/mL) were added to each well. Cells were incubated in the presence of MTT for 4 hours @ 37° C., 5% CO2. […] Cells were then incubated overnight @ 37°, 5% CO2. OD570 measurements were taken using BioTek Synergy HT multiplatform microplate reader. Growth inhibition curves IC50s and IC80s were determined using GraphPad Prism 5 statistical software.

[11] = tested on: PC3-MM2 prostate cancer cells; assay: orthotopic prostate model for in vivo metastases; parameters: species or system Nu/Nu mice; conditions: 15 mg/kg/day oral gavage
Description: Nu/Nu mice (8-12 weeks of age) were injected with PC3-MM2 prostate cancer cells into the prostate as described previously in Pettaway et al., Clin Cancer Res 1996, 2:1627-1636, hereby incorporated herein by reference in its entirety. […] All mice were sacrificed by cervical dislocation on about day 42. Tumor volume (measured by caliper), weight, and incidence of regional (celiac or para-aortal) lymph node metastases were recorded.

[12] = tested on: L3.6pl cells; assay: growth inhibition (BrdU), L3.6pl; format: cell-based, human; conditions: Homo sapiens, L3.6pl, L3.6pl (Pancreas) cells, single agent
Excerpt: L3.6pl cells are previously described in Trevino et al. Am J Pathol.

[13] = tested on: resorption pits on bone slices; assay: resorption pit formation on bone slices; format: cell-based; conditions: vs untreated control
Description: During the resorption of bone, osteoclasts form resorption pits. To determine the effects of the compounds on resorption pit formation on bone slices, the bone slices were treated with Rapamycin, KX1-141, KX2-328, or KX1-329, as described above. […] The number of resorption pits on the bone slices was determined.
Bone slices were treated as indicated above. […] The bone slices were stained with Toluidine Blue to reveal resorption pits, which are indicators of osteoclast-mediated resorption of bone.

[14] = tested on: osteoclasts on bone slices; assay: osteoclast formation on bone slices; format: cell-based; conditions: vs untreated control
Description: To determine the effects of the compounds on osteoclast formation on bone slices, the bone slices were treated with Rapamycin, KX1-141, KX2-328, or KX1-329. […] The number of osteoclasts on the bone slices were counted.
Bone slices were treated as indicated above. […] The bone slices were then stained with TRAP.

[15] = noise-induced hearing loss; format: in vivo, Chinchillas; conditions: chinchilla ears treated on round window, 4 kHz band noise 105 dB SPL 4 h, days 1, 7, 21; relative to control ears
Description: Chinchillas (N=6) were used in studies of noise-induced hearing loss. The animals' hearing sensitivity was measured using standard electrophysical techniques before the experimental manipulation. […] Animals were anesthetized, the auditory bullae were opened, and the left and right cochleas were visualized. The round window leading to the scala tympani of the cochlea was used as the access point for drug application. Animals were treated with KX1-004, KX1-141, KX1-329 or KX2-328 (a non-ATP competitive inhibitor from AstraZeneca, KX2-238), emulsified in DMSO, in 1000 mM of saline solution, which was placed on the round window of one ear. KX1-004:
A control solution of 3 mM DMSO in 1000 mM of saline solution was placed on the round window of the other ear. The solution was allowed to set on the round window for 30 minutes, then the auditory bullae were closed. […] Following the noise exposure, the animals' hearing was tested at day 1, day 7, and day 21 to determine evoked potential threshold shifts. Permanent threshold shift was assessed at day 21.
FIGS. 10-12 show the average threshold shifts for animals treated with KX1-004, KX1-141, KX1-329 or KX2-328.

[16] = tested on: c-Src 3T3 cells; assay: BrdU cell growth inhibition, c-Src 3T3; format: cell-based, mouse; conditions: Mus musculus; for GI50: c-Src 3T3 (c-Src527F/NIH3T3) cells, read-out: GI50
How it was run: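 c-Src 3T3 cells on poly-D-lysine plates in DMEM with 2% FBS, L-glutamine, pyruvate and 10 mM HEPES. Compounds came from 20 mM DMSO stocks diluted in DMEM/10% FBS. Proliferation was read by colorimetric BrdU-incorporation ELISA, and GI50 was extrapolated from growth relative to time-zero and untreated controls.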

[17] = tested on: HT29 cell line; assay: BrdU cell growth inhibition, HT29; format: cell-based, human; conditions: Homo sapiens
How it was run: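 HT29 colon carcinoma cells treated with compounds diluted from 20 mM DMSO stocks into DMEM/10% FBS. Proliferation read as colorimetric BrdU incorporation ELISA; GI calculated relative to untreated cells at time 0 and control cells at day n, with GI50 extrapolated. Net cell loss below time-0 level scored as cytotoxicity.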

[18] = tested on: osteoclasts; assay: osteoclast survival; format: cell-based; conditions: 48 hours, RANKL and M-CSF, vs untreated control
Description: To determine the effect of the compounds on osteoclast survival, osteoclasts were treated with Rapamycin, KX1-141, KX2-328, or KX1-329 for 48 hours in the presence of RANKL and M-CSF. The untreated, control cells were incubated in the presence of RANKL and M-CSF alone. Rapamycin was used as a positive control for the inhibition of osteoclast survival.
As described above, osteoclasts were treated with Rapamycin, KX1-141, KX2-328, or KX1-329 for 48 hours in the presence of RANKL and M-CSF. […] Cells were then stained with TRAP and the number of TRAP-positive osteoclasts were counted.

[19] = tested on: osteoclast precursors derived from spleen cells; assay: osteoclast formation from spleen cells; format: cell-based; conditions: 5 days, RANKL and M-CSF, vs untreated control
Description: To determine the effect of the compounds on osteoclast formation, the compounds were added to osteoclast precursors derived from spleen cells. For the generation of spleen-derived osteoclasts, spleen cells comprising osteoclast precursors were treated with Rapamycin, KX1-141, KX2-328 (AstraZeneca compound), or KX1-329 for 5 days in the presence of receptor activator of nuclear factor-xB ligand (RANKL) and macrophage colony-stimulating factor (M-CSF). In in vitro murine or human osteoclast models, soluble RANKL enables osteoclast precursors to differentiate in the presence of M-CSF (Quinn, et al.; 1998, Endocrinology, 139, 4424-4427; Jimi, et al.; 1999, J. Immunol., 163, 434-442). The untreated control cells were incubated in the presence of RANKL and M-CSF alone. Rapamycin was used as a positive control for the inhibition of osteoclast formation.
For generating spleen-derived osteoclasts, spleen cells were treated as described above. […] Cells were then stained with the osteoclast marker, tartrate-resistant acid phosphatase (TRAP) to visualize differentiated cells. The numbers of TRAP-positive osteoclasts were counted.

[20] = tested on: osteoblasts; assay: osteoblast protein expression; format: cell-based
Description: The enzyme alkaline phosphatase has been used as an indicator of osteoblast activity, as it is involved in making phosphate available for calcification of bone.
To determine the effects of the compounds on osteoblast activity and protein expression, osteoblasts were treated with medium, DMSO, BMP2, KX1-141, KX2-328, or KX1-329 as indicated above. The protein concentration in cell lysates was determined (μg/10 μl) (FIG. 23).

[21] = target: isolated FAK (Homo sapiens, UniProt Q05397); assay: titration against isolated FAK; format: biochemical; conditions: titration data
[22] = target: isolated Src (Homo sapiens, UniProt P12931); assay: titration against isolated Src; format: biochemical; conditions: titration data
Chain of isolated Src (P12931 whole entry): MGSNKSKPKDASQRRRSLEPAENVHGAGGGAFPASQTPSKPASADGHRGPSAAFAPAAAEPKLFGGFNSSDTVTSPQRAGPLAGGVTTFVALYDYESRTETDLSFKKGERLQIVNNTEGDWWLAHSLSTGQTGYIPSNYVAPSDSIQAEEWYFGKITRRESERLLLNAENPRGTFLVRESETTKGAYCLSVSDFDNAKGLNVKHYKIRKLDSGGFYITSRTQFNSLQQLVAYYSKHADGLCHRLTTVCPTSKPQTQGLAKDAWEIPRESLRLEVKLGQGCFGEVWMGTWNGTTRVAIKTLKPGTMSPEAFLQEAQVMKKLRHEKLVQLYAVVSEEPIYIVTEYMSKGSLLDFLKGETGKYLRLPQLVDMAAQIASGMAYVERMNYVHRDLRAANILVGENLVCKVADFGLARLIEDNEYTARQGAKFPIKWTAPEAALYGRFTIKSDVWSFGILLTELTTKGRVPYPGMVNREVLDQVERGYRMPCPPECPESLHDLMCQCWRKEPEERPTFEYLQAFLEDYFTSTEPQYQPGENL

Chain of isolated FAK (Q05397 whole entry): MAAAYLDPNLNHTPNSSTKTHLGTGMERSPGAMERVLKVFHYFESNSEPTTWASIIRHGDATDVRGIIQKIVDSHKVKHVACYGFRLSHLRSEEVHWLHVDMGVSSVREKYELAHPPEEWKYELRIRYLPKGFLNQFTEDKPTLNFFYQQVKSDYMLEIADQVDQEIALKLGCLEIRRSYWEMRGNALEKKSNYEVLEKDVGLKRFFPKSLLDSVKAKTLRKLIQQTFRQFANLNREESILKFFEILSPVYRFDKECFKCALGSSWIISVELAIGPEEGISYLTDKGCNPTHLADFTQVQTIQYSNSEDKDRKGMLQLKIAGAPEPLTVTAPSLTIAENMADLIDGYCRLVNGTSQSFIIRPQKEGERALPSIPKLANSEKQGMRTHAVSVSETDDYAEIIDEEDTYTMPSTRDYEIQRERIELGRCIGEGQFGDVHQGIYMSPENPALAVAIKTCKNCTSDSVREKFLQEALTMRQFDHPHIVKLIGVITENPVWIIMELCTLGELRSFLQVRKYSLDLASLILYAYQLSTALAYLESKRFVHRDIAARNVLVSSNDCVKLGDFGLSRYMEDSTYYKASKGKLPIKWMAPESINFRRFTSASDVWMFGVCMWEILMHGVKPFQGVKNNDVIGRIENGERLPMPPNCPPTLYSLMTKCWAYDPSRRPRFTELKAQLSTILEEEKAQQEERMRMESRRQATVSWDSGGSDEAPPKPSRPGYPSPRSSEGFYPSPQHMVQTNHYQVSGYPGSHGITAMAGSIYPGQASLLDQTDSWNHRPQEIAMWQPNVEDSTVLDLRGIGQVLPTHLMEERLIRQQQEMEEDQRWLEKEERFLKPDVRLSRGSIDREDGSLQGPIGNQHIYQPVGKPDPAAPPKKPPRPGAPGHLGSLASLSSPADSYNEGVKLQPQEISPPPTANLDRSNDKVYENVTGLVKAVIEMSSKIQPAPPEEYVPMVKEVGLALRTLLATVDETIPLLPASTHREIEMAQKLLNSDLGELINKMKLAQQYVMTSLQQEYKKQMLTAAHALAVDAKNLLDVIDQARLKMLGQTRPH

Compound: Cc1nc(Nc2ncc(C(=O)Nc3c(C)cccc3Cl)s2)cc(N2CCN(CCO)CC2)n1 [Dasatinib, reference compound]
IC80 [1]: > 50 µM | GI50 [2]: does not inhibit; also recorded: Inactive | tolerability (reason for dose lowering at day 5) [3]: weight loss | IC80 [4]: 45.6 µM | GI50 [5]: 0.644 µM | IC80 [6]: > 50 µM | GI50 [7]: < 0.001 µM | GI50 [8]: Inactive (n = 1) | IC50 [9]: 0.163 µM | IC80 [9]: 7.76 µM | IC50 [10]: 1.97 µM | IC80 [10]: 7.13 µM | LN metastasis [11]: 2/5 | Tumor incidence [11]: 5/6 | Tumor weight (g) Median [11]: 0.43 g

Compound: Nc1ccn([C@@H]2O[C@H](CO)[C@@H](O)C2(F)F)c(=O)n1 [Gemcitabine, gemcitabine, reference compound]
GI50 [12]: 0.002 µM

GI50 ([17]; HT-29, HT29 (Colon) cells, read-out: GI50): 0.338 µM
Compound: O=C(Cc1ccc(-c2ccccc2)cn1)NCc1cccc(F)c1 [KX1-329]
number of resorption pits on the bone slices ([13]; FIG. 20B): reduced | number of resorption pits on the bone slices (Toluidine Blue) ([13]; FIG. 21B): reduced | number of osteoclasts on the bone slices ([14]; FIG. 20A): reduced | number of TRAP-positive osteoclasts on the bone slices ([14]; FIG. 21A): reduced | average dB threshold shifts [15]: lower | activity at 0.1 µM ([16]; NIH3T3, 100 nM, read-out: c-Src 3T3 Growth, % of Control Mean, n = 3): 96% | activity at 1 µM ([16]; NIH3T3, 1.0 uM, read-out: c-Src 3T3 Growth, % of Control Mean, n = 3): < 0% | activity at 10 µM ([16]; NIH3T3, 10 uM, read-out: c-Src 3T3 Growth, % of Control Mean, n = 3): < 0% | GI50 [16]: 0.269 µM | activity at 0.05 µM ([17]; HT-29, 50 nM, read-out: HT-29 Growth, % of Control Mean, n = 3): 101% | activity at 0.5 µM ([17]; HT-29, 500 nM, read-out: HT-29 Growth, % of Control Mean, n = 3): < 0% | activity at 5 µM ([17]; HT-29, 5 uM, read-out: HT-29 Growth, % of Control Mean, n = 3): < 0% | number of TRAP-positive osteoclasts (survival) [18]: reduced | survival of osteoclasts (staining) [18]: inhibited | formation of osteoclasts (staining) [19]: inhibited | number of TRAP-positive osteoclasts (formation) [19]: reduced | protein concentration in osteoblast cell lysates ([20]; 0.06 μM and 0.3 μM): increased protein concentration | protein concentration in osteoblast cell lysates ([20]; […] and 7.5 μM): reduced protein concentration

IC50 [21]: > 48 µM | IC50 [22]: 5 µM
Compound: CN1CCN(CCOc2ccc(-c3ccc(CC(=O)NCc4cccc(F)c4)nc3)c(F)c2)CC1 [KX2-394]
GI50 [16]: 0.013 µM
